Reference: article PMC6982817, “Substituted N-(Pyrazin-2-yl)benzenesulfonamides; Synthesis, Anti-Infective Evaluation, Cytotoxicity, and In Silico Studies” (Molecules, 2019)
In brackets after ≈: the same amount, converted by molar mass. Like-named read-outs stand apart in the source and are kept apart here.

What was measured:
[1] = system: Mycobacterium tuberculosis H37Rv CNCTC My 331/88 (ATCC 27294); experiment: Antimycobacterial microplate alamar blue assay, M. tuberculosis H37Rv; format: cell-based; details: for Antimycobacterial Activity MIC Mtb H37Rv: Middlebrook 7H9 broth pH 6.6, alamar blue; for MIC: Mycobacterium tuberculosis
[2] = system: M. avium ssp. avium CNCTC My 80/72 (ATCC 15769); experiment: Antimycobacterial microplate alamar blue assay, M. avium; format: cell-based, Mycobacterium avium; details: for MIC: Mycobacterium avium
in vitro = details: human
[3] = system: M. kansasii CNCTC My 235/80 (ATCC 12478); experiment: Antimycobacterial microplate alamar blue assay, M. kansasii; format: cell-based, Mycobacterium kansasii; details: for MIC: Mycobacterium kansasii
[4] = system: Mycobacterium aurum DSM 43999 (ATCC 23366); experiment: Antimycobacterial microdilution assay, M. aurum; format: cell-based; details: Middlebrook 7H9 broth, resazurin after 72 hours; for MIC: Mycolicibacterium aurum, 72 h
[5] = system: Mycobacterium smegmatis DSM 43465 (ATCC 607); experiment: Antimycobacterial microdilution assay, M. smegmatis; format: cell-based; details: Middlebrook 7H9 broth, resazurin after 48 hours; for MIC: Mycolicibacterium smegmatis, 48 h, read-out: Antimycobacterial Activity MIC M. smeg
[6] = ATCC15769, pH 6.6, Middlebrook 7H9 broth pH 6.6, alamar blue, read-out: Antimycobacterial Activity MIC M. avium
[7] = ATCC12478, pH 6.6, Middlebrook 7H9 broth pH 6.6, alamar blue, read-out: Antimycobacterial Activity MIC M. kansasii
[8] = Table 4 comparison, title compounds, read-out: Antimycobacterial Activity MIC against Mtb H37Rv, Sulfonamide
[9] = pH 6.6, Middlebrook 7H9 broth pH 6.6, alamar blue, read-out: Antimycobacterial Activity MIC Mtb H37Rv
[10] = ATCC12478, molar value printed beside μg/mL in text, read-out: MIC M. kansasii
[11] = Middlebrook 7H9 broth pH 6.6, alamar blue

| Structure (SMILES) | Antimycobacterial Activity MIC Mtb H37Rv [1] | MIC ([1]; pH 6.6, read-out: Antimycobacterial Activity MIC Mtb H37Rv) [mg/L] | MIC [2, 6] [mg/L] | IC50 at 24 h (in vitro) [µM] | melting point [°C] | MIC [3, 7] [mg/L] | MIC [4] [mg/L] | MIC [1, 8] [mg/L] | MIC [1, 9] [mg/L] | MIC [5] [mg/L] | MIC [3, 10] [µM] | MIC ([1]; read-out: MIC Mtb H37Rv) [µM] | MIC ([2]; ATCC15769, molar value printed beside μg/mL in text, read-out: MIC M. avium) [µM] | Antimycobacterial Activity MIC M. aurum [4] [mg/L] | Antimycobacterial Activity MIC M. smeg [5] [mg/L] | Antimycobacterial Activity MIC M. avium [2, 11] [mg/L] | Antimycobacterial Activity MIC M. kansasii [3, 11] [mg/L] |
| --- | --- | --- | --- | --- | --- | --- | --- | --- | --- | --- | --- | --- | --- | --- | --- | --- | --- |
| NS(=O)(=O)c1ccccc1 [Benzenesulfonamide, benzenesulfonamide] | completely inactive | > 100 | – | – | – | – | – | – | – | – | – | – | – | – | – | – | – |
| O=S(=O)(Nc1cnccn1)c1ccccc1 [Compound 1a, N-(pyrazin-2-yl)benzenesulfonamide] | – | – | > 100 | > 1000 | 203 to 205 | 100 | ≥ 500 | > 100 | > 100 | ≥ 250 | – | – | – | – | – | – | – |
| O=S(=O)(Nc1cncc(Cl)n1)c1ccccc1 [Compound 1b, N-(6-chloropyrazin-2-yl)benzenesulfonamide] | – | – | > 100 | 731 | 198 to 200.2 | 100 | ≥ 500 | 50 | 50 | 250 (≈ 927 µM) | – | – | – | – | – | – | – |
| CC(=O)Nc1ccc(S(=O)(=O)Nc2cnccn2)cc1 [Compound 2a, N-(4-(N-(pyrazin-2-yl)sulfamoyl)phenyl)acetamide] | – | – | > 100 | > 500 | 243.8 to 245.6 | 25 | ≥ 500 | – | > 100 | ≥ 500 | 85.5 | – | – | – | – | – | – |
| CC(=O)Nc1ccc(S(=O)(=O)Nc2cncc(Cl)n2)cc1 [Compound 2b, N-(4-(N-(6-chloropyrazin-2-yl)sulfamoyl)phenyl)acetamide] | – | – | > 100 | > 500 | – | 25 | ≥ 500 | – | > 100 | 250 (≈ 765 µM) | 76.5 | – | – | – | – | – | – |
| O=[N+]([O-])c1ccc(S(=O)(=O)Nc2cnccn2)cc1 [Compound 3a, 4-nitro-N-(pyrazin-2-yl)benzenesulfonamide] | – | – | > 100 | > 1000 | 230.8 to 231.8 | > 100 | > 500 | – | > 100 | > 500 | – | – | – | – | – | – | – |
| O=[N+]([O-])c1ccc(S(=O)(=O)Nc2cncc(Cl)n2)cc1 [Compound 3b, N-(6-chloropyrazin-2-yl)-4-nitrobenzenesulfonamide] | – | – | > 100 | > 1000 | – | > 100 | 125 (≈ 397 µM) | – | > 100 | 250 (≈ 794 µM) | – | – | – | – | – | – | – |
| Nc1ccc(S(=O)(=O)Nc2cnccn2)cc1 [Compound 4a, 4-amino-N-(pyrazin-2-yl)benzenesulfonamide] | – | – | 100 | 776 | – | – | 250 (≈ 999 µM) | – | 6.25 | ≥ 500 | 6.2 | 25 | – | – | – | – | – |
| Nc1ccc(S(=O)(=O)Nc2cncc(Cl)n2)cc1 [Compound 4b, 4-amino-N-(6-chloropyrazin-2-yl)benzenesulfonamide] | – | – | 25 | > 500 | 234.7 to 236.1 | 12.5 | 250 (≈ 878 µM) | – | 6.25 | ≥ 500 | 44 | 22 | 88 | – | – | – | – |
| O=S(=O)(Nc1cnccn1)c1ccc(C(F)(F)F)cc1 [Compound 5a, N-(pyrazin-2-yl)-4-(trifluoromethyl)benzenesulfonamide] | – | – | > 100 | > 1000 | 154.3 to 155.5 | 50 | 250 (≈ 824 µM) | – | > 100 | 250 (≈ 824 µM) | – | – | – | – | – | – | – |
| O=S(=O)(Nc1cncc(Cl)n1)c1ccc(C(F)(F)F)cc1 [Compound 5b, N-(6-chloropyrazin-2-yl)-4-(trifluoromethyl)benzenesulfonamide] | – | – | > 100 | 364 | 125 to 127.2 | > 100 | 250 (≈ 740 µM) | – | 100 | 250 (≈ 740 µM) | – | – | – | – | – | – | – |
| COc1ccc(S(=O)(=O)Nc2cnccn2)cc1 [Compound 6a, 4-methoxy-N-(pyrazin-2-yl)benzenesulfonamide] | – | – | > 100 | > 1000 | – | > 100 | ≥ 500 | > 100 | > 100 | ≥ 500 | – | – | – | – | – | – | – |
| O=S(=O)(Nc1cncc(Cl)n1)c1ccc(Br)cc1 [Compound 7b, 4-bromo-N-(6-chloropyrazin-2-yl)benzenesulfonamide] | – | – | > 100 | 308 | 176.5 to 179.3 | 50 | 125 (≈ 359 µM) | – | 100 | 125 (≈ 359 µM) | – | – | – | – | – | – | – |
| Cc1cc(C)cc(S(=O)(=O)Nc2cnccn2)c1 [Compound 8a, 3,5-dimethyl-N-(pyrazin-2-yl)benzenesulfonamide] | – | – | > 100 | > 500 | 184 to 187 | 50 | 250 (≈ 949 µM) | – | > 100 | ≥ 500 | – | – | – | – | – | – | – |
| Cc1cc(C)cc(S(=O)(=O)Nc2cncc(Cl)n2)c1 [Compound 8b, N-(6-chloropyrazin-2-yl)-3,5-dimethylbenzenesulfonamide] | – | – | 50 | 523 | – | > 100 | ≥ 500 | – | 50 | ≥ 500 | – | – | – | – | – | – | – |
| Cc1cc(C)c(S(=O)(=O)Nc2cnccn2)c(C)c1 [Compound 9a, 2,4,6-trimethyl-N-(pyrazin-2-yl)benzenesulfonamide] | – | – | > 100 | > 250 | – | > 100 | ≥ 500 | – | > 100 | 125 (≈ 451 µM) | – | – | – | – | – | – | – |
| Cc1cc(C)c(C)c(S(=O)(=O)Nc2cnccn2)c1C [Compound 10a, 2,3,5,6-tetramethyl-N-(pyrazin-2-yl)benzenesulfonamide] | – | – | > 100 | > 250 | 221 to 223.7 | 50 | ≥ 500 | – | > 100 | ≥ 500 | – | – | – | – | – | – | – |
| O=S(=O)(Nc1cnccn1)c1ccc(-c2ccccc2)cc1 [Compound 12a, N-(pyrazin-2-yl)-[1,1′-biphenyl]-4-sulfonamide] | – | – | > 100 | > 250 | – | 100 | ≥ 500 | – | 100 | ≥ 500 | 321 | – | – | – | – | – | – |
| CO[C@H]1/C=C/O[C@@]2(C)Oc3c(C)c(O)c4c(O)c(c(/C=N/N5CCN(C)CC5)c(O)c4c3C2=O)NC(=O)/C(C)=C\C=C\[C@H](C)[C@H](O)[C@@H](C)[C@@H](O)[C@@H](C)[C@H](OC(C)=O)[C@@H]1C [RFM, reference compound] | – | – | – | – | – | – | 0.78 to 1.56 (≈ 0.948 to 1.9 µM) | – | – | 12.5 to 25 (≈ 15.2 to 30.4 µM) | – | – | – | 1.56 | 25 | – | – |
| Nc1ccc(S(=O)(=O)Nc2cncc(Cl)n2)cc1 [Sulfaclozine, reference compound] | 6.25 mg/L | – | – | – | – | – | – | – | – | – | – | – | – | 250 | 250 | 25 | 12.5 |
| Nc1ccc(S(=O)(=O)Nc2cnc3ccccc3n2)cc1 [Sulfaquinoxaline, reference compound] | – | – | 50 | – | – | 12.5 | 250 (≈ 832 µM) | – | 3.13 | 125 (≈ 416 µM) | – | – | – | – | – | – | – |
